The text below walks through data of patent publication US9181264B2, “Fused heteroaryls and their uses” (Hutchison MediPharma Limited, priority 2011, dated 2015).

Bounds are passed on as bounds.

One test addresses T1, PI3Kα kinase (Homo sapiens, UniProt P42336).
T1 construct: purchased Invitrogen PV4788
The test is described as follows: PI3Ka Transcreener ADP assay (fluorescence polarization). The format is biochemical. The settings on record: 10 μM ATP, 30 μmol/L lipid substrate; read-out: IC50, inhibition of PI3Kα kinase. A digest of the protocol:
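Transcreener ADP FP assay with PI3Kα (0.2 ng/μL), 30 μmol/L lipid substrate (PIP2) and 10 μM ATP (final) in HEPES pH 7.5 buffer with MgCl2, 0.03% CHAPS, 2% DMSO. 60 min reaction at room temperature, then ADP detection 1.5 h (ex 610/em 670 nm). ADP from standard curve; IC50 fitted.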
(In general: Polarisation of emitted light reports the rotation of a fluorescent probe.)

The target in a further test is T2, mTOR kinase (Homo sapiens, UniProt P42345).
T2 construct: purchased Invitrogen PV4753
The experiment in a line: mTOR LanthaScreen TR-FRET assay. The format is biochemical. The settings on record: 10 μmol/L ATP, GFP-4EBP1 substrate; read-out: IC50, inhibition of mTOR. On the procedure:
Compounds are tested using LanthaScreen TR-FRET Assay. The kinase reaction is completed in 384-well black plate (Corning, Cat. 3676). The final conditions for kinase assay are: 10 μmol/L of ATP, 0.2 ng/μL of mTOR kinase, 0.4 μmol/L of GFP-4EBP1 substrate and assay buffer (50 mmol/L of HEPES, pH 7.5, 0.01% of Tween 20, 1 mmol/L of EGTA, 10 mmol/L of MnCl2, 2 mmol/L of DTT and 1% DMSO).
To each well, 2.5 μL of test compounds in 4% DMSO and 2.5 μL of 0.8 ng/μL mTOR kinase (Invitrogen, PV4753) diluted in assay buffer are added. The reaction is initiated by the addition of 5 μL mixture of 0.8 μmol/L GFP-4EBP1 Substrate (Invitorgen, PV4759) and 20 μmol/L ATP mixtures. The mixture is incubated at room temperature for 60 minutes. 10 μL of 20 mmol/L EDTA and 4 nmol/L Tb-anti-p4EBP1 [pThr46] antibody (Invitrogen, PV4755) diluted in TR-FRET dilution buffer are added and incubated for an additional 1 hour. The plate is then read in a BioTek Synergy2 Reader at excitation of 340 nm and emission of 490 nm and 528 nm.
The inhibition of test compound is calculated based on the ratio of 528 nm/490 nm. IC50 of test compound is obtained using XLfit 2.0 software.
Background: Time-resolved FRET reads energy transfer from a long-lived donor to a nearby acceptor.

T1 sequence (P42336 whole entry): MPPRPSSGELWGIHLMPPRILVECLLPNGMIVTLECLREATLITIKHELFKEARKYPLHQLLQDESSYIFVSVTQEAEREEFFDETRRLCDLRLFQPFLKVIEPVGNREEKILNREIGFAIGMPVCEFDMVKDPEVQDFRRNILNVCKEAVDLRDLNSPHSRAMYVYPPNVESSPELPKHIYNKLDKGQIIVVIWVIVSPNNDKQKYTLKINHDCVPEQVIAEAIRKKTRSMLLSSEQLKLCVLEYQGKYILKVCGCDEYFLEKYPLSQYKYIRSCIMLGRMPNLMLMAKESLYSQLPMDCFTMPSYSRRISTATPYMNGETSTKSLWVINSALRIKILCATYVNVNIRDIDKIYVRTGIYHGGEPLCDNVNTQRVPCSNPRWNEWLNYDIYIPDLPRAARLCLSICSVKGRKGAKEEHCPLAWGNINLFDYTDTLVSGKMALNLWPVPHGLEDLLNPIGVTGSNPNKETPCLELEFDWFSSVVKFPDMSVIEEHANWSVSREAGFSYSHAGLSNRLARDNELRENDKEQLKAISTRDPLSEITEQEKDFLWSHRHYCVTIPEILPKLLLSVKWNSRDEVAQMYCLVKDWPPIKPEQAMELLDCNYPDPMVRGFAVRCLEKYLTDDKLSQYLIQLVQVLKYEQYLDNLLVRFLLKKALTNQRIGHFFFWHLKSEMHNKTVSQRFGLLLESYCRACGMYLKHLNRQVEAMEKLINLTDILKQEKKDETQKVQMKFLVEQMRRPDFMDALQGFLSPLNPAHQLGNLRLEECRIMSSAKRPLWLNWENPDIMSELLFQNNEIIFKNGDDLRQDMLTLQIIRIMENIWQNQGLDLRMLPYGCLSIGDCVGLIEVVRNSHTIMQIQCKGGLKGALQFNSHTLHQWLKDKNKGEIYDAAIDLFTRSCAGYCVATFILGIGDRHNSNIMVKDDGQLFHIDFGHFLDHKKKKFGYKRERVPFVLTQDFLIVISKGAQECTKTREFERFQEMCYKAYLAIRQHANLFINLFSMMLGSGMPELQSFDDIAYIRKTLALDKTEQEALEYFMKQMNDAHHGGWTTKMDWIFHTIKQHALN
T1 sequence (P27986 whole entry partner): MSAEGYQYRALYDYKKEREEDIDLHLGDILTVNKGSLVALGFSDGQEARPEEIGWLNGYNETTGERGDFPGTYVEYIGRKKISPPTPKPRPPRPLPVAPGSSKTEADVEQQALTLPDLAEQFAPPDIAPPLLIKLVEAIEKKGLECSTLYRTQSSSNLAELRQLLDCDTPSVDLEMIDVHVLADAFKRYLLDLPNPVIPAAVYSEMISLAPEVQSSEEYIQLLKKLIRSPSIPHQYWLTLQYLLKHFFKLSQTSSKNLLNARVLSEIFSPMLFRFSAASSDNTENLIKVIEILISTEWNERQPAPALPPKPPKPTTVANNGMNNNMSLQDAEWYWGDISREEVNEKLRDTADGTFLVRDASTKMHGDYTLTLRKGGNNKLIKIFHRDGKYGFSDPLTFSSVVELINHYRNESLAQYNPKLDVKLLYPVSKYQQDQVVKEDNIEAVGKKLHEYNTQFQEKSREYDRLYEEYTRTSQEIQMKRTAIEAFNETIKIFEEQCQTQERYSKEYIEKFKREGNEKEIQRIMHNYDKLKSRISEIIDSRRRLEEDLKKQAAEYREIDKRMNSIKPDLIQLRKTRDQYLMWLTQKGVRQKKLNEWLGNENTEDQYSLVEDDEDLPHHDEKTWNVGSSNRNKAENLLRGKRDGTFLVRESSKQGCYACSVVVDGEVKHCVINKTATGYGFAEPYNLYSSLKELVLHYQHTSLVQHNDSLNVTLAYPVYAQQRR
T2 sequence (P42345 1360-2549 limits assumed): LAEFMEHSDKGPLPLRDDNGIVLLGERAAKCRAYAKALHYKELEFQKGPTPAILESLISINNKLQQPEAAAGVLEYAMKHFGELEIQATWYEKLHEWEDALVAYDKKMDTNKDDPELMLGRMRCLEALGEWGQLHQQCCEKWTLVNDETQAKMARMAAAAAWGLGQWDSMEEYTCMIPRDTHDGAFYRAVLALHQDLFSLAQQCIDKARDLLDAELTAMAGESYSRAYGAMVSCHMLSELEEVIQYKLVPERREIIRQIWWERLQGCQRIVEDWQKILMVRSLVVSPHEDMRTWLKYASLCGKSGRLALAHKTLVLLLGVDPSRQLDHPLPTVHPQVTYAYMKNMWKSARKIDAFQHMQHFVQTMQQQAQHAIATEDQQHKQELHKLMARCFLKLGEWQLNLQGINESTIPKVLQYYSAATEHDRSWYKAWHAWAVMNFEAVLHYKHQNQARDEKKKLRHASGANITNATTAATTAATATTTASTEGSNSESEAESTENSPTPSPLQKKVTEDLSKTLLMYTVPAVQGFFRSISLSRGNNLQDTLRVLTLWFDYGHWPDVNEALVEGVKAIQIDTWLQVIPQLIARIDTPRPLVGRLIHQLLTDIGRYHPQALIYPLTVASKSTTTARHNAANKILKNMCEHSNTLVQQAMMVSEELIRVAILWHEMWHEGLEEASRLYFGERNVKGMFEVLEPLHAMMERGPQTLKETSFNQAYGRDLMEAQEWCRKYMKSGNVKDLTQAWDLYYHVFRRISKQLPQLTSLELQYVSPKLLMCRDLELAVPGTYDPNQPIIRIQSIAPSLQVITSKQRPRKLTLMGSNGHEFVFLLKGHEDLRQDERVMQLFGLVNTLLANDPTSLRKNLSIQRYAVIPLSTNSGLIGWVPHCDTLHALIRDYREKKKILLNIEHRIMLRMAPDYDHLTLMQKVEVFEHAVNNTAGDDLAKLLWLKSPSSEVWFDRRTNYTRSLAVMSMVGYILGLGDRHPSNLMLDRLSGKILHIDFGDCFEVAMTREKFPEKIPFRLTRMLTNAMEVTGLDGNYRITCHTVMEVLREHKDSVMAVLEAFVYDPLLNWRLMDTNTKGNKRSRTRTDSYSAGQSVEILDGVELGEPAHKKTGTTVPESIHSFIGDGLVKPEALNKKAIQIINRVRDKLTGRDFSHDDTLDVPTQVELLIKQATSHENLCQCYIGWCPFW

As a reminder, the IC50 is the concentration that inhibits the measured activity by half. `Nc1ncc(-c2ccc3ncc4ncn(C5CCOCC5)c4c3n2)cc1C(F)(F)F` [Compound 106]: the half-inhibitory concentration (IC50) on PI3Kα kinase and at mTOR kinase was less than 100 nM throughout.
As to `C[C@H](O)C(=O)N1CCC(n2cnc3cnc4ccc(-c5cnc(N)c(C(F)(F)F)c5)nc4c32)CC1` [Compound 107], the IC50 on PI3Kα kinase and at mTOR kinase was less than 100 nM throughout.
In the case of `Cc1nc2cnc3ccc(-c4cnc(N)c(C(F)(F)F)c4)nc3c2n1C1CCN(C(=O)C2CC2)CC1` [Compound 119, (4-(8-(6-amino-5-(trifluoromethyl)pyridine-3yl)-2-methyl-1H-imidazo[4,5-c][1,5]naphthyridin-1-yl)piperidin-1-yl)(cyclopropyl)methanone], the IC50 on PI3Kα kinase and on mTOR kinase was less than 100 nM in each case.
As to `CCC(=O)N1CCC(n2c(C)nc3cnc4ccc(-c5cnc(N)c(C(F)(F)F)c5)nc4c32)CC1` [Compound 120], the IC50 at PI3Kα kinase and at mTOR kinase was less than 100 nM throughout.
In the case of `Cc1nc2cnc3ccc(-c4cnc(N)c(C(F)(F)F)c4)nc3c2n1C1CCN(CC2(C)COC2)CC1` [Compound 121], the IC50 on PI3Kα kinase and on mTOR kinase was less than 100 nM each time.
On to `Cc1nc2cnc3ccc(-c4cnc(N)c(C(F)(F)F)c4)nc3c2n1C1CCN(C(=O)[C@H](C)O)CC1` [Compound 122], for which the IC50 on PI3Kα kinase and at mTOR kinase was less than 100 nM throughout.
Consider `Cc1nc2cnc3ccc(-c4cnc(N)c(C(F)(F)F)c4)nc3c2n1C1CCN(CC(=O)N(C)C)CC1` [Compound 123], for which the IC50 at PI3Kα kinase and at mTOR kinase was less than 100 nM throughout.
Consider `Cc1nc2cnc3ccc(-c4cnc(N)c(C(F)(F)F)c4)nc3c2n1C1CCN(CCO)CC1` [Compound 129], for which the half-inhibitory concentration (IC50) on PI3Kα kinase and at mTOR kinase was less than 100 nM throughout.
Regarding `CCc1nc2cnc3ccc(-c4cnc(N)c(C(F)(F)F)c4)nc3c2n1C1CCOCC1` [Compound 131], the IC50 on PI3Kα kinase and at mTOR kinase was less than 100 nM in each case.
With `COc1ncc(-c2ccc3ncc4nnc(C)n4c3c2)cc1NS(=O)(=O)c1ccc(F)cc1F` [Compound 147, 2,4-difluoro-N-(2-methoxy-5-(1-methyl-[1,2,4]triazolo[4,3-a]quinoxalin-8-yl)pyridin-3-yl)benzenesulfonamide], the IC50 on PI3Kα kinase and on mTOR kinase was less than 100 nM in each case.
With `COc1ncc(-c2ccc3ncc4nn(C)c(=O)n4c3c2)cc1NS(=O)(=O)c1ccc(F)cc1F` [Compound 148], the concentration for half-maximal inhibition (IC50) on PI3Kα kinase and at mTOR kinase was less than 100 nM each time.
As for `CCn1nc2cnc3ccc(-c4cnc(OC)c(NS(=O)(=O)c5ccc(F)cc5F)c4)cc3n2c1=O` [Compound 149], the IC50 at PI3Kα kinase and at mTOR kinase was less than 100 nM throughout.
In the case of `COc1ncc(-c2ccc3ncc4nc(C)n(C)c4c3n2)cc1NS(=O)(=O)c1ccc(F)cc1F` [Compound 151], the IC50 on PI3Kα kinase and on mTOR kinase was less than 100 nM each time.
On to `COc1ncc(-c2ccc3ncc4nnc(-c5ccc(F)cc5)n4c3c2)cc1NS(C)(=O)=O` [Compound 152], for which the IC50 at PI3Kα kinase and on mTOR kinase was less than 100 nM throughout.
Turning to `COc1ncc(-c2ccc3ncc4ncn(C)c4c3n2)cc1NS(=O)(=O)c1ccc(F)cc1F` [Compound 153], the IC50 on PI3Kα kinase and on mTOR kinase was less than 100 nM throughout.
Regarding `COc1ncc(-c2ccc3ncc4nnn(C)c4c3n2)cc1NS(=O)(=O)c1ccc(F)cc1F` [Compound 154], the IC50 on PI3Kα kinase and at mTOR kinase was less than 100 nM each time.
On to `COc1ncc(-c2ccc3ncc4nnc(C)n4c3c2)cc1NS(=O)(=O)C(F)(F)F` [Compound 155], for which the IC50 at PI3Kα kinase and on mTOR kinase was less than 100 nM in each case.
For the molecule `Cc1ncc(-c2ccc3ncc4nnc(C)n4c3c2)cc1NS(=O)(=O)c1ccc(F)cc1F` [Compound 156], the IC50 at PI3Kα kinase and at mTOR kinase was less than 100 nM in each case.
For `COc1ncc(-c2ccc3ncc4nnc(OC)n4c3c2)cc1NS(=O)(=O)c1ccc(F)cc1F` [Compound 157], the IC50 on PI3Kα kinase and at mTOR kinase was less than 100 nM throughout.
For `COc1ncc(-c2ccc3ncc4nnc(CN(C)C)n4c3c2)cc1NS(=O)(=O)c1ccc(F)cc1F` [Compound 158], the IC50 at PI3Kα kinase and at mTOR kinase was less than 100 nM in each case.
With `COc1ncc(-c2ccc3ncc4ncn(C)c4c3n2)cc1NS(=O)(=O)C(F)(F)F` [Compound 159], the IC50 on PI3Kα kinase and on mTOR kinase was less than 100 nM throughout.
Consider `COc1ncc(-c2ccc3ncc4c(c3c2)n(C)c(=O)n4C)cc1NS(=O)(=O)c1ccc(F)cc1F` [Compound 160], for which the IC50 at PI3Kα kinase and on mTOR kinase was less than 100 nM each time.
For `COc1ncc(-c2ccc3ncc4nnc(CN(C)C)n4c3c2)cc1NS(=O)(=O)C(F)(F)F` [Compound 165], the IC50 at PI3Kα kinase and at mTOR kinase was less than 100 nM throughout.
As for `COc1ncc(-c2ccc3ncc4nc(C)n(C)c4c3n2)cc1NS(=O)(=O)C(F)(F)F` [Compound 166], the IC50 on PI3Kα kinase and at mTOR kinase was less than 100 nM in each case.
Turning to `COc1ncc(-c2ccc3ncc4ncn(CCN(C)C)c4c3n2)cc1NS(=O)(=O)C(F)(F)F` [Compound 178], the IC50 at PI3Kα kinase and on mTOR kinase was less than 100 nM each time.
Turning to `COc1ncc(-c2ccc3ncc4nnc(C)n4c3c2)cc1NS(=O)(=O)c1ccccc1F` [Compound 180], the IC50 on PI3Kα kinase and on mTOR kinase was less than 100 nM in each case.
Regarding `COc1ncc(-c2ccc3ncc4nnc(C)n4c3c2)cc1NS(=O)(=O)c1ccccc1` [Compound 181], the IC50 on PI3Kα kinase and on mTOR kinase was less than 100 nM throughout.
